Data as given in ChEMBL document CHEMBL1201862, “PubChem BioAssay data set” (2004).
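Five compound concentrations were applied to cells in 96-well plates for 48 hours; endpoints were derived by simple linear interpolation of the resulting dose-response curve. GI50 = concentration required for 50% inhibition of growth.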 The source made the active and inactive calls. No stated cut-off is given here; in the data, active = GI50 up to about 1.1 µM and inactive = higher.

Columns and labels:
Test in all cases: growth of human tumour cells (NCI), 48 h
[1] = test system: 786-0
[2] = test system: ACHN
[3] = test system: BT-549
[4] = test system: CCRF-CEM
[5] = test system: COLO 205
[6] = test system: DU-145
[7] = test system: HCC 2998
[8] = test system: HCT-116
[9] = test system: HCT-15
[10] = test system: HL-60
[11] = test system: HOP-62
[12] = test system: HOP-92
[13] = test system: HT-29
[14] = test system: Hs-578T
[15] = test system: IGROV-1
[16] = test system: K562
[17] = test system: KM12
[18] = test system: LOX IMVI
[19] = test system: M14
[20] = test system: MCF7
[21] = test system: MDA-MB-231
[22] = test system: MDA-MB-435
[23] = test system: MDA-N
[24] = test system: MOLT-4
[25] = test system: NCI-H460
[26] = test system: OVCAR-4
[27] = test system: OVCAR-5
[28] = test system: OVCAR-8
[29] = test system: PC-3
[30] = test system: RPMI-8226
[31] = test system: SF-268
[32] = test system: SF-295
[33] = test system: SF-539
[34] = test system: SK-MEL-28
[35] = test system: SK-MEL-2
[36] = test system: SK-MEL-5
[37] = test system: SK-OV-3
[38] = test system: SN12C
[39] = test system: SNB-19
[40] = test system: SNB-75
[41] = test system: SR
[42] = test system: SW-620
[43] = test system: T47D
[44] = test system: TK-10
[45] = test system: U-251
[46] = test system: UACC-257
[47] = test system: UACC-62
[48] = test system: UO-31
[49] = test system: A498
[50] = test system: A549
[51] = test system: CAKI-1
[52] = test system: EKVX
[53] = test system: Malme-3M
[54] = test system: NCI-H226
[55] = test system: NCI-H23
[56] = test system: NCI-H522
[57] = test system: NCI/ADR-RES
[58] = test system: OVCAR-3
[59] = test system: RXF 393

Measured: GI50

CCCCCCCN1C(=O)C(O)(c2ccc(C3(O)C(=O)N(CCCCCCC)c4ccccc43)s2)c2ccccc21 (stereo not given)
2120 nM: [9]
active: [37] 753 nM
inactive: [1] 1910 nM | [2] 2260 nM | [3] 2330 nM | [4] 3870 nM | [5] 1630 nM | [6] 1650 nM | [7] 1870 nM | [8] 1730 nM | [10] 1560 nM | [11] 1770 nM | [12] 1840 nM | [13] 1780 nM | [14] 2790 nM | [15] 2350 nM | [16] 2990 nM | [17] 1800 nM | [18] 1960 nM | [19] 1790 nM | [20] 2210 nM | [21] 2190 nM | [22] 2050 nM | [23] 1990 nM | [24] 2030 nM | [25] 1790 nM | [26] 2010 nM | [27] 1680 nM | [28] 2040 nM | [29] 1970 nM | [30] 2040 nM | [31] 2110 nM | [32] 1850 nM | [33] 1790 nM | [34] 2070 nM | [35] 1470 nM | [36] 1790 nM | [38] 1900 nM | [39] 2810 nM | [40] 5400 nM | [41] 4830 nM | [42] 2180 nM | [43] 4390 nM | [44] 2250 nM | [45] 1740 nM | [46] 2070 nM | [47] 2120 nM | [48] 1570 nM

COC(C)(C)C(O)C(O)C[C@H](C)C1CC=C2C1(C)CCC1[C@@]3(C)CCC(OC(C)=O)C(C)(C)C3CC(OC3OC(COC(C)=O)C(O)C(O)C3O)[C@@]21C (stereo not given in full)
3850 nM: [9]
inactive: [1] 4800 nM | [49] 3310 nM | [50] 4130 nM | [2] 3870 nM | [3] > 10000 nM | [51] > 10000 nM | [4] 3000 nM | [5] 1990 nM | [6] 7100 nM | [52] 4790 nM | [7] 2140 nM | [8] 3000 nM | [10] 2590 nM | [11] 3980 nM | [12] 3600 nM | [13] 3410 nM | [14] 4370 nM | [15] 2780 nM | [16] 3330 nM | [17] 2920 nM | [18] 2320 nM | [19] 3150 nM | [20] 3330 nM | [21] 2500 nM | [22] 3240 nM | [23] 3010 nM | [24] 1930 nM | [53] 5550 nM | [54] 5210 nM | [55] 4850 nM | [25] 3240 nM | [56] 2780 nM | [57] > 10000 nM | [58] 2940 nM | [26] 5860 nM | [27] 2880 nM | [28] 3720 nM | [29] 3480 nM | [30] 2070 nM | [59] 3850 nM | [31] 6050 nM | [32] 3030 nM | [33] 2830 nM | [34] 4570 nM | [36] 2210 nM | [37] > 10000 nM | [38] 4200 nM | [39] 5010 nM | [40] 3700 nM | [42] 5380 nM | [43] 5130 nM | [44] 4530 nM | [45] 4370 nM | [46] 3020 nM | [47] 2760 nM
active: [48] 287 nM
